Experimental data taken from paper PMC12112773, “Chemical Constituents and α-Glucosidase Inhibitory Activities of the Leaves of Embelia parviflora—In Vitro and In Silico Studies” (Life, 2025).
Read-outs that look alike come from different tables or passages of the source.

Legend:
α-glucosidase = settings: cited from earlier work
[1] = biological target: T1, α-glucosidase from Saccharomyces cerevisiae (Saccharomyces cerevisiae, UniProt P53341); test: in vitro assay of α-glucosidase enzyme inhibition (p-nitrophenyl α-D-glucopyranoside substrate); format: biochemical
T1 construct: purchased Sigma Aldrich (St. Louis, MO, USA)
Protocol: Enzyme α-glucosidase from Saccharomyces cerevisiae (E.C. 232-604-7) and p-nitrophenyl-α-D-glucopyranoside were purchased from Sigma Aldrich (St. Louis, MO, USA).
The in vitro assay of α-glucosidase enzyme inhibition of the E. parviflora MeOH extract and tested compounds was conducted following the methodology outlined in our earlier study [38]. Briefly, solutions of MeOH extract and isolated compounds at 256 μg/mL, 64 μg/mL, 16 μg/mL, 4 μg/mL, and 1 μg/mL concentrations were prepared using DMSO (Merck). The compound solution (2 μL) and 0.2 U/mL α-glucosidase enzyme solution (25 µL) in 120 µL phosphate buffer were mixed. After 5 min preincubation, a solution of 2.5 mM p-nitrophenyl α-D-glucopyranoside (25 µL) prepared in phosphate buffer was added. The reaction mixture was incubated at 37 °C for 30 min and was stopped by adding 0.2 M of Na2CO3 (100 µL). Enzymatic activity (the absorbance of the released p-nitrophenol) was quantified by measuring at 410 nm using a Biotek reader. The % inhibition was calculated using the following equation:Inhibition (%) = [1 − (Asample/Acontrol)] × 100
The biological experiments were performed in triplicate. The IC50 values are presented as the mean ± standard deviation (S.D) using the program Statistica 10.

[2] = mean ± S.D, triplicate, 37 °C, 30 min, read-out: α-Glucosidase inhibitory activity IC50

T1 sequence (P53341 whole entry): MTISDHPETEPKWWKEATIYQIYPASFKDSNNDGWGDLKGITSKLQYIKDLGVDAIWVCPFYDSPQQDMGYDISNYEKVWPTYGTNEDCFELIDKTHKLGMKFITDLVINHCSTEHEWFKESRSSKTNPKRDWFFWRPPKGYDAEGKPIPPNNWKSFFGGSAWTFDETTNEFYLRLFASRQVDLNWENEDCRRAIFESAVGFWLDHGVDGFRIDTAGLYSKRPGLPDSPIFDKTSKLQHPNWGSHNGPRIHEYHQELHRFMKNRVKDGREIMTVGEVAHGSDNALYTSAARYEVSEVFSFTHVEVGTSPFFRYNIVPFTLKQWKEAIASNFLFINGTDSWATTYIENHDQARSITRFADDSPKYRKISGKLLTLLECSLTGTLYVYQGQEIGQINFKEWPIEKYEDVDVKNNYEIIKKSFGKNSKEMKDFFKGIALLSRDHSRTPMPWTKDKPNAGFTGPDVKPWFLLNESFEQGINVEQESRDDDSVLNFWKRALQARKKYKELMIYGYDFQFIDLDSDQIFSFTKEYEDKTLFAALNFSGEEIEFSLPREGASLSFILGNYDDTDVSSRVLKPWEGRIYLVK

| Compound | IC50 [1, 2] | other results |
| --- | --- | --- |
| CC[C@H](CC[C@@H](C)[C@H]1CC[C@H]2[C@@H]3CC=C4C[C@@H](O)CC[C@]4(C)[C@H]3CC[C@]12C)C(C)C [Compound 1, β-sistosterol] | > 617 µM | anti-α-glucosidase activity IC50 (α-glucosidase): 283.67 µg/mL |
| CC[C@H](CC[C@@H](C)[C@H]1CC[C@H]2[C@@H]3CC=C4C[C@@H](O[C@@H]5O[C@H](CO)[C@@H](O)[C@H](O)[C@H]5O)CC[C@]4(C)[C@H]3CC[C@]12C)C(C)C [Compound 2, daucosterol] | > 444 µM | anti-α-glucosidase activity IC50 (α-glucosidase): 247.35 µg/mL |
| CCCCCCCCCCCCCCCC(=O)OC[C@H]1O[C@@H](O[C@H]2CC[C@@]3(C)C(=CCC4C3CC[C@@]3(C)C4CC[C@@H]3[C@H](C)/C=C/[C@@H](CC)C(C)C)C2)[C@H](O)[C@@H](O)[C@@H]1O (stereo partly drawn) [Compound 3, 3-O-(6′-O-palmitoyl)-β-D-glucopyranosyl stigmasterol] | > 315 µM | – |
| C[C@H]1[C@H](C)CC[C@]2(C(=O)O)CC[C@]3(C)C(=CC[C@@H]4[C@@]5(C)CC[C@H](O)C(C)(C)[C@@H]5CC[C@]43C)[C@H]12 [Compound 4, ursolic acid] | – | manner of inhibition (α-glucosidase): non-competitive; IC50 [1]: 3.07 µM |
| C[C@@H]1O[C@@H](Oc2c(-c3ccc(O)c(O)c3)oc3cc(O)cc(O)c3c2=O)[C@H](O)[C@H](O)[C@H]1O [Compound 7, quercitrin] | – | IC50 (α-glucosidase; Dang's group, read-out: α-glucosidase inhibitory activity IC50): 26.5 µM; IC50 [1]: 375 µM |
| CC1OC(Oc2c(-c3ccc(O)c(OC4OC(CO)C(O)C(O)C4O)c3)oc3cc(O)cc(O)c3c2=O)C(O)C(O)C1O (stereo not drawn) [Compound 8, quercetin-3-rhamnoside-3′-glucoside] | > 419 µM | – |
| CC1=CC(=O)CC(C)(C)[C@H]1/C=C/[C@@H](C)O [Compound 9, (6R,9R)-9-hydroxy-4,7-megastigmadien-3-one] | > 1230 µM | – |
| CC(=O)C=C=C1C(C)(C)C[C@H](O)C[C@]1(C)O [Compound 10, grasshopper ketone] | > 1140 µM | – |
| CC1=CC(=O)CC(C)(C)[C@H]1/C=C/[C@@H](C)O[C@@H]1O[C@H](CO[C@@H]2OC[C@](O)(CO)[C@H]2O)[C@@H](O)[C@H](O)[C@H]1O [Compound 11, (6R,7E,9R)-9-hydroxy-4,7-megastigmadien-3-one-9-O-β-D-apiofuranosyl(1->6)-β-D-glucopyranoside] | > 509 µM | – |
| CC1=CC(=O)CC(C)(C)[C@@]1(O)/C=C/[C@@H](C)O [Compound 12, vomifoliol] | – | α-glucosidase inhibitory activity (in words) (α-glucosidase): inactive; IC50 [1]: > 1140 µM |
| COC(=O)/C=C/c1ccc(O)cc1 [Compound 13, methyl trans-p-coumarate] | > 1440 µM | IC50 (α-glucosidase; read-out: inhibition of α-glucosidase IC50): 54.1 µM |
| CC1=C(O)C(=O)OC1C (stereo not drawn) [Compound 16, sotolone] | > 2000 µM | – |
